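Where inhibition never reached the appropriate level, the endpoint shown equals the highest concentration tested. Otherwise, values were interpolated linearly from a five-concentration, 48-hour dose response in 96-well plates. GI50 = concentration required for 50% inhibition of growth.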 The source made the active and inactive calls. No stated cut-off is given here; in the data, active = GI50 up to about 1.1 µM and inactive = higher.
Columns and labels:
Assay in all cases: inhibition of tumour cell growth, NCI panel, 48 h
CCRF-CEM = tested on: CCRF-CEM
EKVX = tested on: EKVX
HCC 2998 = tested on: HCC 2998
HT-29 = tested on: HT-29
KM12 = tested on: KM12
Malme-3M = tested on: Malme-3M
NCI-H23 = tested on: NCI-H23
NCI-H522 = tested on: NCI-H522
RXF 393 = tested on: RXF 393
SK-MEL-2 = tested on: SK-MEL-2
SNB-19 = tested on: SNB-19
SW-620 = tested on: SW-620
UACC-257 = tested on: UACC-257
UACC-62 = tested on: UACC-62
UO-31 = tested on: UO-31

SMILES	GI50 (CCRF-CEM)	GI50 (EKVX)	GI50 (HCC 2998)	GI50 (HT-29)	GI50 (KM12)	GI50 (Malme-3M)	GI50 (NCI-H23)	GI50 (NCI-H522)	GI50 (RXF 393)	GI50 (SK-MEL-2)	GI50 (SNB-19)	GI50 (SW-620)	GI50 (UACC-257)	GI50 (UACC-62)	GI50 (UO-31)
CCOC(=O)C1Oc2ccc([N+](=O)[O-])c3c2C1(O)CCC3 (stereo not given)	> 100 µM (inactive)	> 100 µM (inactive)	> 100 µM (inactive)	> 100 µM (inactive)	> 100 µM (inactive)	> 100 µM (inactive)	> 100 µM (inactive)	> 100 µM (inactive)	> 100 µM (inactive)	> 100 µM (inactive)	> 100 µM (inactive)	> 100 µM (inactive)	> 100 µM (inactive)	> 100 µM (inactive)	47.2 µM (inactive)
COC(=O)c1cc(Br)c(Br)n1C	> 100 µM (inactive)	42.7 µM (inactive)	> 100 µM (inactive)	> 100 µM (inactive)	> 100 µM (inactive)	> 100 µM (inactive)	> 100 µM (inactive)	39.4 µM (inactive)	> 100 µM (inactive)	–	> 100 µM (inactive)	> 100 µM (inactive)	> 100 µM (inactive)	> 100 µM (inactive)	> 100 µM (inactive)
CC(C)(C)OC(=O)NC(CO)c1cccc(OCc2ccccc2)c1 (stereo not given)	31.7 µM (inactive)	8.39 µM (inactive)	> 100 µM (inactive)	> 100 µM (inactive)	> 100 µM (inactive)	63 µM (inactive)	> 65.5 µM (inactive)	46 µM (inactive)	> 100 µM (inactive)	> 100 µM (inactive)	> 81.7 µM (inactive)	> 90.4 µM (inactive)	25.9 µM (inactive)	33 µM (inactive)	> 100 µM (inactive)
COC1=CC(=O)C2C(C1=O)C(c1ccc(Cl)cc1)[C@@H]2C (stereo not given in full)	29.4 µM (inactive)	26.3 µM (inactive)	45.5 µM (inactive)	> 100 µM (inactive)	47.2 µM (inactive)	23 µM (inactive)	28.6 µM (inactive)	15.2 µM (inactive)	24.1 µM (inactive)	37.4 µM (inactive)	7.05 µM (inactive)	27.4 µM (inactive)	20.6 µM (inactive)	24.7 µM (inactive)	19.7 µM (inactive)
O=C(O)CCSC(=O)Nc1cccc2ccccc12	> 100 µM (inactive)	> 100 µM (inactive)	> 100 µM (inactive)	> 100 µM (inactive)	> 100 µM (inactive)	> 100 µM (inactive)	> 100 µM (inactive)	–	> 100 µM (inactive)	–	> 100 µM (inactive)	> 100 µM (inactive)	> 100 µM (inactive)	> 100 µM (inactive)	> 100 µM (inactive)
Cc1nn2c(=O)n(-c3cccc(-n4nnc5c(-c6ccccc6)c(C)nn5c4=O)c3C)nnc2c1-c1ccccc1	19.9 µM (inactive)	38.9 µM (inactive)	20.5 µM (inactive)	35.7 µM (inactive)	> 10 µM (inactive)	14.2 µM (inactive)	98.4 µM (inactive)	15.5 µM (inactive)	34.6 µM (inactive)	3.33 µM (inactive)	> 100 µM (inactive)	20.6 µM (inactive)	22.4 µM (inactive)	46.1 µM (inactive)	8.91 µM (inactive)
C=C(C)C1CCC2(C)CC1c1c(c(C)cc3c1[nH]c1ccccc13)O2 (stereo not given)	24.3 µM (inactive)	–	> 25 µM (inactive)	> 25 µM (inactive)	> 25 µM (inactive)	> 25 µM (inactive)	–	15 µM (inactive)	–	> 25 µM (inactive)	> 25 µM (inactive)	> 25 µM (inactive)	–	> 25 µM (inactive)	12.6 µM (inactive)
COc1ccc([C@H]2CC(=O)N3CCCC3N2)cc1 (stereo not given in full)	> 100 µM (inactive)	> 100 µM (inactive)	> 100 µM (inactive)	> 100 µM (inactive)	> 100 µM (inactive)	> 100 µM (inactive)	> 100 µM (inactive)	> 100 µM (inactive)	> 100 µM (inactive)	> 100 µM (inactive)	> 100 µM (inactive)	> 100 µM (inactive)	> 100 µM (inactive)	> 100 µM (inactive)	> 100 µM (inactive)
O=C(Cc1ccccc1)NN1C(=O)C(Cl)C1c1ccc(O)cc1 (stereo not given)	> 100 µM (inactive)	> 100 µM (inactive)	> 100 µM (inactive)	> 100 µM (inactive)	> 100 µM (inactive)	> 100 µM (inactive)	> 100 µM (inactive)	> 100 µM (inactive)	> 100 µM (inactive)	> 100 µM (inactive)	> 100 µM (inactive)	> 100 µM (inactive)	> 100 µM (inactive)	> 100 µM (inactive)	64.7 µM (inactive)
Nc1ccc(C(=O)N/C(=C\c2cccc([N+](=O)[O-])c2)c2nc3c4c(ccc3[nH]2)C(=O)c2ccccc2C4=O)cc1	0.853 µM (active)	42.6 µM (inactive)	> 100 µM (inactive)	62.5 µM (inactive)	–	> 100 µM (inactive)	10.8 µM (inactive)	4.41 µM (inactive)	10.1 µM (inactive)	91.6 µM (inactive)	13.6 µM (inactive)	73.5 µM (inactive)	> 100 µM (inactive)	53.3 µM (inactive)	1.86 µM (inactive)
CC1CCC(O)C(C(O)CC2CC(=O)N(C)C(=O)C2)C1 (stereo not given)	> 100 µM (inactive)	> 100 µM (inactive)	> 100 µM (inactive)	> 100 µM (inactive)	> 100 µM (inactive)	> 100 µM (inactive)	> 100 µM (inactive)	> 100 µM (inactive)	> 100 µM (inactive)	–	> 100 µM (inactive)	> 100 µM (inactive)	> 100 µM (inactive)	> 100 µM (inactive)	> 100 µM (inactive)
Cc1cn(C2CC(n3cncn3)C(C(C)O)O2)c(=O)[nH]c1=O (stereo not given)	> 100 µM (inactive)	> 100 µM (inactive)	> 100 µM (inactive)	> 100 µM (inactive)	> 100 µM (inactive)	> 100 µM (inactive)	> 100 µM (inactive)	> 100 µM (inactive)	> 100 µM (inactive)	> 100 µM (inactive)	> 100 µM (inactive)	> 100 µM (inactive)	> 100 µM (inactive)	> 100 µM (inactive)	> 100 µM (inactive)
C=CCC1([C@H](C)[C@@H](OC(C)=O)c2cc(OC)c(OC)c(OC)c2)C[C@@H](OC)CCC1=O (stereo not given in full)	3.3 µM (inactive)	26.2 µM (inactive)	–	14.1 µM (inactive)	16.4 µM (inactive)	17.2 µM (inactive)	9.59 µM (inactive)	11.1 µM (inactive)	12.9 µM (inactive)	15.3 µM (inactive)	–	13.7 µM (inactive)	> 10 µM (inactive)	16.1 µM (inactive)	–
CC1=C(C#N)C(N)=C2C(C)=C(C#N)C(N)=C12	> 100 µM (inactive)	> 100 µM (inactive)	> 100 µM (inactive)	> 100 µM (inactive)	> 100 µM (inactive)	> 100 µM (inactive)	> 100 µM (inactive)	> 100 µM (inactive)	> 100 µM (inactive)	–	> 100 µM (inactive)	> 100 µM (inactive)	> 100 µM (inactive)	> 100 µM (inactive)	> 100 µM (inactive)
N#C/C(=C/c1cccc(Oc2ccccc2)c1)c1ccccc1	> 100 µM (inactive)	> 100 µM (inactive)	> 100 µM (inactive)	> 100 µM (inactive)	> 100 µM (inactive)	> 100 µM (inactive)	> 100 µM (inactive)	> 100 µM (inactive)	–	66.5 µM (inactive)	–	> 100 µM (inactive)	> 100 µM (inactive)	> 100 µM (inactive)	> 100 µM (inactive)
COc1ccc(/C=C\c2cc(OC)c(OC(C)=O)c(OC)c2)cc1	5.46 µM (inactive)	15.6 µM (inactive)	10.7 µM (inactive)	12.4 µM (inactive)	5.06 µM (inactive)	19 µM (inactive)	13.3 µM (inactive)	15.5 µM (inactive)	–	7.53 µM (inactive)	7.24 µM (inactive)	11.1 µM (inactive)	17.3 µM (inactive)	8.15 µM (inactive)	15.7 µM (inactive)
CCO/C=C\C12CCCC1NC(c1ccccc1)(c1ccccc1)O2 (stereo not given)	21.5 µM (inactive)	43.9 µM (inactive)	–	23.2 µM (inactive)	35.7 µM (inactive)	25.9 µM (inactive)	28.4 µM (inactive)	33.7 µM (inactive)	31 µM (inactive)	23.2 µM (inactive)	45.7 µM (inactive)	38.4 µM (inactive)	27.5 µM (inactive)	21.7 µM (inactive)	28.8 µM (inactive)
N/C(=N\N=C=C1C(=O)Nc2ccc(F)cc21)NO	98.2 µM (inactive)	95.5 µM (inactive)	> 100 µM (inactive)	> 100 µM (inactive)	41.4 µM (inactive)	> 100 µM (inactive)	> 100 µM (inactive)	86.1 µM (inactive)	> 100 µM (inactive)	> 100 µM (inactive)	–	> 100 µM (inactive)	> 100 µM (inactive)	39.3 µM (inactive)	–
COC(=O)N1[C@H]2Cc3c(OC)c(C)c(OC)c(OC)c3[C@@H]1/C(=C\c1cc(OC)c(OC)c(C)c1OC)N(Cc1ccccc1)C2=O	28.6 µM (inactive)	37.7 µM (inactive)	8.51 µM (inactive)	45.1 µM (inactive)	27.4 µM (inactive)	28.6 µM (inactive)	75 µM (inactive)	5.7 µM (inactive)	> 100 µM (inactive)	24.7 µM (inactive)	58.9 µM (inactive)	–	23 µM (inactive)	56.9 µM (inactive)	18.7 µM (inactive)
